ChEMBL document CHEMBL1212831, “Discovery of N-[(2S)-5-(6-fluoro-3-pyridinyl)-2,3-dihydro-1H-inden-2-yl]-2-propanesulfonamide, a novel clinical AMPA receptor positive modulator” (J Med Chem, 2010)
Active and inactive are the calls of the source. No cut-off for these calls is given here.

What was measured:
[1] = biological target: Glutamate receptor 2 (Homo sapiens, UniProt P42262)
Description: Activation of human GluR2 flip isoform expressed in HEK293 cells assessed as increase of glutamate-induced intracellular calcium level by FLIPR assay

[2] = biological target: T1, Cytochrome P450 1A2 (Homo sapiens, UniProt P05177)
T1 sequence (P05177 whole entry): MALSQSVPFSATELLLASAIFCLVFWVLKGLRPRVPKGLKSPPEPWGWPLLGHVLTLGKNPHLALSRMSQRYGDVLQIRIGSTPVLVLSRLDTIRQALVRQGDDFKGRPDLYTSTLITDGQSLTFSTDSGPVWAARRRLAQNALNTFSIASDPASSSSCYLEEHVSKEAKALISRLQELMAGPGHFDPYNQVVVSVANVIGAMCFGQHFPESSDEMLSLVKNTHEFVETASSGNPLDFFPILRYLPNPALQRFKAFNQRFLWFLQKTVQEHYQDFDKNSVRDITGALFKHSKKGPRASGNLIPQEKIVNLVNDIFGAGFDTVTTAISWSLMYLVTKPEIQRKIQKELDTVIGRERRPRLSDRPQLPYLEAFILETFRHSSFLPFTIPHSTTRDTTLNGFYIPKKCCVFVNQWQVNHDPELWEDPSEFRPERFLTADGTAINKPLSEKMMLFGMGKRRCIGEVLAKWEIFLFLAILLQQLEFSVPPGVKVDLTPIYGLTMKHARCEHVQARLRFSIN
Description: Inhibition of human CYP1A2 after 10 mins

[3] = biological target: Cytochrome P450 2C9 (Homo sapiens, UniProt P11712)
Chain of Cytochrome P450 2C9 (P11712 whole entry): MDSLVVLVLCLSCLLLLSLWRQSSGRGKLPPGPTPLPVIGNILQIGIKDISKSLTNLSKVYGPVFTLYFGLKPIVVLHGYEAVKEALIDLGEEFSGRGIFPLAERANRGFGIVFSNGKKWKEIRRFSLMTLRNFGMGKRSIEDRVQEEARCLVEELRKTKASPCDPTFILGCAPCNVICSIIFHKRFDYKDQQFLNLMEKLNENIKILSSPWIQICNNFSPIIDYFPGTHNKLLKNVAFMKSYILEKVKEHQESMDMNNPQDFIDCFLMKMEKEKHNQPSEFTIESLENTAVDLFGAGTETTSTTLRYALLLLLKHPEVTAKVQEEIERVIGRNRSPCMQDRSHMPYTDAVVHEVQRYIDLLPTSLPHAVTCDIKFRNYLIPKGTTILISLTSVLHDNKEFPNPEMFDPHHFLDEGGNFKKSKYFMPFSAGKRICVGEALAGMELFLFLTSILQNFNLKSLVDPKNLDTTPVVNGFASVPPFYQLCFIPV
Description: Inhibition of human CYP2C9 after 10 mins

[4] = biological target: Cytochrome P450 2C19 (Homo sapiens, UniProt P33261)
Chain of Cytochrome P450 2C19 (P33261 whole entry): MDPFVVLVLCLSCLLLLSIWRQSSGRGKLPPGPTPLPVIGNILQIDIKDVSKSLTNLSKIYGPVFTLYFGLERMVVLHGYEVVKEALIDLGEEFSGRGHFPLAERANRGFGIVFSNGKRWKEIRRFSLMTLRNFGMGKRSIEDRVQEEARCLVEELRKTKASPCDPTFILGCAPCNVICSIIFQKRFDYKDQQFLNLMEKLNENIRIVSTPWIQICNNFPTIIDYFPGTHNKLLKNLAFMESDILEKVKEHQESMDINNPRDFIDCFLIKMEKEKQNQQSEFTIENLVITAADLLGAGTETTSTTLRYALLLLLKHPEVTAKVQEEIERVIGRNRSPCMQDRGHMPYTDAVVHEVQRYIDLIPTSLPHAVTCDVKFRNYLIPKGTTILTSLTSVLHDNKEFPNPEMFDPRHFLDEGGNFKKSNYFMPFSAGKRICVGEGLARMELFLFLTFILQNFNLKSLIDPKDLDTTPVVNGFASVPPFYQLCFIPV
Description: Inhibition of human CYP2C19 after 10 mins

[5] = biological target: Cytochrome P450 2D6 (Homo sapiens, UniProt P10635)
Chain of Cytochrome P450 2D6 (P10635 whole entry): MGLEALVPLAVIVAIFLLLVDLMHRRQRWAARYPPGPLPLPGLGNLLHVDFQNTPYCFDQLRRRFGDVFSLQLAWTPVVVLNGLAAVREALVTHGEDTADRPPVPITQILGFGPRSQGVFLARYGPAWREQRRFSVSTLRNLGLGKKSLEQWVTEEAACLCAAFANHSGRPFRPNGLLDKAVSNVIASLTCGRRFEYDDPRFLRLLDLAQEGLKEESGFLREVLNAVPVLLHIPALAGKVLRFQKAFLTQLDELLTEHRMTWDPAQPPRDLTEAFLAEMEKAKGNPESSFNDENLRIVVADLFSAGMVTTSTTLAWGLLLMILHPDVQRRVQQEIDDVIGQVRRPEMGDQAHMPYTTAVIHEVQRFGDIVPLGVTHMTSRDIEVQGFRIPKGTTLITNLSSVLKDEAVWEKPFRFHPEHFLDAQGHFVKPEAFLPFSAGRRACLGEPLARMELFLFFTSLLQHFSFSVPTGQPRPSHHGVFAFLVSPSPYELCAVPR
Description: Inhibition of human CYP2D6 after 10 mins

[6] = biological target: Cytochrome P450 3A4 (Homo sapiens, UniProt P08684)
Chain of Cytochrome P450 3A4 (P08684 whole entry): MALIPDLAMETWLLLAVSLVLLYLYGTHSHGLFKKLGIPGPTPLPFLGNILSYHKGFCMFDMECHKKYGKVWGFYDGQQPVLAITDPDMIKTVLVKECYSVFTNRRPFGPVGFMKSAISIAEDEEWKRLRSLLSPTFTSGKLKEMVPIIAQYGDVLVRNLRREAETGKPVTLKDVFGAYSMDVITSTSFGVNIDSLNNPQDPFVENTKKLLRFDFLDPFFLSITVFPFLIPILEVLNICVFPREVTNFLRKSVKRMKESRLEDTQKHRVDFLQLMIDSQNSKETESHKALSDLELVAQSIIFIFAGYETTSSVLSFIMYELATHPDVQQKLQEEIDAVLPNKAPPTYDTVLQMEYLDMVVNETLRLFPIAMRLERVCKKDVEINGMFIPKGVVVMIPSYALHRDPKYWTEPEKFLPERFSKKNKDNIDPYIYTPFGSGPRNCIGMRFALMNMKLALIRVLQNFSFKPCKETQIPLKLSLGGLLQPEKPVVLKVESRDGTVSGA
Description: Inhibition of human CYP3A4 after 10 mins

[7] = tested on: Liver microsomes
[8] = tested on: Liver microsomes; remark: listed apart in the source
[9] = physchem
Description: Dissociation constant, pKa of the compound

[10] = Plasma protein binding in rat at 1 ug/ml after 6 hrs by equilibrium dialysis method; type: ADME, cell-free; details: read-out: PPB (converted)
[11] = in vivo; details: rat, brain/blood
Description: Ratio of brain AUC (0 to t) to blood AUC (0 to t) in rat

[12] = AUC (0 to t) in rat; type: ADME, organism-based; details: plasma
[13] = tested on: Brain; experiment: Brain tissue binding in rat at 1 ug/ml after 6 hrs by equilibrium dialysis method; type: ADME, tissue-based
[14] = tested on: Rattus norvegicus; experiment: Cognitive enhancing effect in po dosed Lister Hooded rat assessed as reversal of 24 hrs delay-induced retention deficit behavior by novel object recognition assay; type: functional; details: read-out: MED
[15] = tested on: Blood; experiment: Drug level in po dosed Lister Hooded rat blood; type: ADME, organism-based; details: in vivo
[16] = tested on: Brain; experiment: Drug level in po dosed Lister Hooded rat brain assessed per gram of tissue; type: ADME, organism-based; details: in vivo
[17] = tested on: Rattus norvegicus; experiment: Antiamnesic activity in po dosed assessed as inhibition of Scopolamine-induced amnesic deficit administered 3 hrs before Scopolamine challenge by step-down passive avoidance test; type: functional, organism-based; details: Wistar
[18] = tested on: Rattus norvegicus; experiment: Antiamnesic activity in po dosed assessed as inhibition of amnesic deficit by step-down passive avoidance test; type: functional, organism-based; details: Wistar
[19] = Blood clearance in Sprague-Dawley rat at 1 mg/kg, iv and 3 mg/kg, po; type: ADME, organism-based
[20] = Half life in Sprague-Dawley rat at 1 mg/kg, iv and 3 mg/kg, po; type: ADME, organism-based; details: in vivo
[21] = Volume of distribution at steady state in Sprague-Dawley rat at 1 mg/kg, iv and 3 mg/kg, po; type: ADME, organism-based; details: in vivo, read-out: Vdss
[22] = Cmax in Sprague-Dawley rat at 3 mg/kg, po; type: ADME, organism-based; set-up: dose 3 mg/kg, route oral; details: in vivo
[23] = Tmax in Sprague-Dawley rat at 3 mg/kg, po; type: ADME, organism-based; set-up: dose 3 mg/kg, route oral; details: in vivo
[24] = Oral bioavailability in Sprague-Dawley rat at 3 mg/kg; type: ADME, organism-based; details: in vivo
[25] = tested on: MDR1 (human); experiment: in vitro; details: dog, MDCK-MDR1
Description: Efflux ratio of permeability from basolateral to apical over apical to basolateral side of MDCK2 cells over expressing human MDR1

Chain of Glutamate receptor 2 (P42262 whole entry): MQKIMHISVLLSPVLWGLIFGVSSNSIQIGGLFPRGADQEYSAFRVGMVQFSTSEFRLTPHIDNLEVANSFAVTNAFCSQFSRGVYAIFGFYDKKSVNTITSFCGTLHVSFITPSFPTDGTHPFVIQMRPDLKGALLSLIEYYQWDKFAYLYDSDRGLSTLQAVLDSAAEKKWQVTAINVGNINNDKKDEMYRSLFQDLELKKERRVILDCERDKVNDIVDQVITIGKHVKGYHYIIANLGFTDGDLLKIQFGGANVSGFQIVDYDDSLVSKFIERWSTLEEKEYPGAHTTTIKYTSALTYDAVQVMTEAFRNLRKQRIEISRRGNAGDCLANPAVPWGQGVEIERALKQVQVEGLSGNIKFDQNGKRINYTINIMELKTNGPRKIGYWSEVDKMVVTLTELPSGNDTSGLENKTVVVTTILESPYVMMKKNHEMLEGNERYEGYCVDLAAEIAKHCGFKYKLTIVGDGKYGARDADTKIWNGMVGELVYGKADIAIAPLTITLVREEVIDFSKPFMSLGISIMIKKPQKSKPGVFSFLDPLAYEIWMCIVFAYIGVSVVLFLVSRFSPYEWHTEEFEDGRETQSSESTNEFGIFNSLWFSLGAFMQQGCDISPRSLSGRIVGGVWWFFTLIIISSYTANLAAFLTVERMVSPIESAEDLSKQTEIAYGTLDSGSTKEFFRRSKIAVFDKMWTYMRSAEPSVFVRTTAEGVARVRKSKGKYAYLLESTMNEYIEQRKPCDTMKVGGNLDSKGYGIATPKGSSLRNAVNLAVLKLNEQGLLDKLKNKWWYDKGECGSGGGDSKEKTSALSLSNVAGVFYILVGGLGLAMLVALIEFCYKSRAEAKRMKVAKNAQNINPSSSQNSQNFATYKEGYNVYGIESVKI

Row | EC50 [1] [µM] | IC50 [2] [µM] | IC50 [3] [µM] | IC50 [4] [µM] | IC50 [5] [µM] | IC50 [6] [µM] | IC50 [7] [µM] | IC50 [8] [µM] | pKa [9] | Structure (SMILES) | also measured
1 | 15.8 | 0.6 | > 10 | > 10 | > 10 | > 10 | 2.1 | < 0.5 | 5.1 | CC(C)S(=O)(=O)NC1Cc2ccc(-c3cccnc3)cc2C1 (stereo unspecified) | –
2 | 20 | – | – | – | – | – | – | – | – | CC(=O)Nc1cccc(-c2ccc3c(c2)CC(NS(=O)(=O)C(C)C)C3)c1 (stereo unspecified) | fraction unbound at 6 h, 1 ug/ml [10]: 0.051
3 | 20 | > 10 | > 10 | > 10 | > 10 | > 10 | 14 | 1.3 | 4.9 | Cc1cccnc1-c1ccc2c(c1)CC(NS(=O)(=O)C(C)C)C2 (stereo unspecified) | –
4 | 20 | > 10 | > 10 | > 10 | > 10 | > 9 | 4.5 | 1.4 | 5.8 | Cc1ccncc1-c1ccc2c(c1)CC(NS(=O)(=O)C(C)C)C2 (stereo unspecified) | –
5 | > 50.1 | – | – | – | – | – | – | – | – | CC(C)C(=O)Nc1cccc(-c2ccc3c(c2)CC(NS(=O)(=O)C(C)C)C3)c1 (stereo unspecified) | –
6 | – | – | – | – | > 10 | – | – | – | – | CC(C)S(=O)(=O)N[C@@H]1Cc2ccc(-c3ccc(F)nc3)cc2C1 | –
7 | > 50.1 | – | – | – | – | – | – | – | – | CC(=O)c1cccc(-c2ccc3c(c2)CC(NS(=O)(=O)C(C)C)C3)c1 (stereo unspecified) | –
8 | 15.8 | > 10 | > 10 | 9 | > 10 | > 10 | 2.5 | 2.1 | – | CC(C)S(=O)(=O)NC1Cc2ccc(-c3cccnc3F)cc2C1 (stereo unspecified) | Kp [11]: 1.5
9 | 12.6 | – | – | – | – | – | – | – | – | CC(C)S(=O)(=O)NC1Cc2ccc(-c3cccc(CN4CCCC4=O)c3)cc2C1 (stereo unspecified) | fraction unbound at 6 h, 1 ug/ml [10]: 0.024; AUC(0-t) [12]: 36 ng·h/mL; Kp [11]: 0.4
10 | 2 | > 10 | > 10 | > 10 | > 10 | > 10 | 1.6 | < 0.5 | 2.7 | CC(C)S(=O)(=O)N[C@H]1Cc2ccc(-c3ccc(F)cn3)cc2C1 | Activity [13]: 97.9%; fraction unbound at 6 h, 1 ug/ml [10]: 0.097; minimal effective dose [14]: 0.3 mg/kg; Drug uptake [15]: 37 ng/mL; Drug uptake [16]: 70 ng/g; Activity [17]: Dose-dependent effect; inhibition [18]: inactive; clearance [19]: 24 mL/min/kg; half-life [20]: 60 min; Vd [21]: 2.2 L/kg; Cmax [22]: 436 ng/mL; Tmax [23]: 30 min; bioavailability [24]: 72%; Kp [11]: 1.4; efflux ratio [25]: 1.1
11 | 63.1 | > 10 | > 10 | > 10 | > 10 | > 10 | < 0.5 | 0.7 | – | CC(C)S(=O)(=O)NC1Cc2ccc(-c3cncc(C#N)c3)cc2C1 (stereo unspecified) | –
12 | > 50.1 | – | – | – | – | – | – | – | – | CC(C)S(=O)(=O)NC1Cc2ccc(-c3cccc(C#N)c3)cc2C1 (stereo unspecified) | –
13 | – | > 10 | > 10 | > 10 | > 10 | > 10 | 1.1 | 1.7 | – | CC(C)S(=O)(=O)NC1Cc2ccc(-c3ccc(F)nc3)cc2C1 (stereo unspecified) | –
14 | 1.26 | – | – | – | – | – | – | – | – | CC(C)S(=O)(=O)NC1Cc2ccc(-c3cccc(N(C)S(C)(=O)=O)c3)cc2C1 (stereo unspecified) | fraction unbound at 6 h, 1 ug/ml [10]: 0.036; AUC(0-t) [12]: 161 ng·h/mL; Kp [11]: 0.4; efflux ratio [25]: 3.2
15 | 3.16 | > 10 | > 10 | > 10 | > 10 | > 10 | 2 | 0.7 | 5.7 | Cc1ccc(-c2ccc3c(c2)CC(NS(=O)(=O)C(C)C)C3)cn1 (stereo unspecified) | Kp [11]: 1.4
16 | 6.31 | > 10 | > 10 | > 10 | > 10 | > 10 | 0.6 | 0.5 | 2.7 | CC(C)S(=O)(=O)NC1Cc2ccc(-c3ccc(F)cn3)cc2C1 (stereo unspecified) | –
17 | 3.16 | > 10 | > 10 | > 10 | > 10 | > 10 | 7.3 | 0.8 | 4.9 | Cc1ccc(-c2ccc3c(c2)CC(NS(=O)(=O)C(C)C)C3)nc1 (stereo unspecified) | –
18 | 6.31 | – | – | – | – | – | – | – | – | CC(=O)Cc1cccc(-c2ccc3c(c2)CC(NS(=O)(=O)C(C)C)C3)c1 (stereo unspecified) | –
19 | 2 | > 10 | > 10 | > 10 | > 10 | > 10 | 3.5 | < 0.6 | 5.8 | Cc1ccc(-c2ccc3c(c2)C[C@@H](NS(=O)(=O)C(C)C)C3)cn1 | Activity [13]: 96.7%; fraction unbound at 6 h, 1 ug/ml [10]: 0.078; clearance [19]: 55 mL/min/kg; half-life [20]: 36 min; Vd [21]: 2.4 L/kg; Cmax [22]: 116 ng/mL; Tmax [23]: 60 min; bioavailability [24]: 25%; Kp [11]: 1.3; efflux ratio [25]: 0.9
20 | 0.398 | – | – | – | – | – | – | – | – | CC(C)S(=O)(=O)NC[C@H](C)c1ccc(NC(=O)c2cc(F)cc(F)c2)cc1 | –
21 | 7.94 | – | – | – | – | – | – | – | – | CC(C)S(=O)(=O)NC1Cc2ccc(-c3cccc(S(=O)(=O)N(C)C)c3)cc2C1 (stereo unspecified) | –
22 | 2.51 | – | – | – | – | – | – | – | – | CCS(=O)(=O)Nc1cccc(-c2ccc3c(c2)CC(NS(=O)(=O)C(C)C)C3)c1 (stereo unspecified) | –
23 | 7.94 | > 10 | > 10 | > 10 | > 10 | > 10 | < 0.8 | < 0.5 | – | CC(C)S(=O)(=O)NC1Cc2ccc(-c3ccc(Cl)cn3)cc2C1 (stereo unspecified) | –

Row | Structure (SMILES) | EC50 [1] [µM] | IC50 [2] [µM] | IC50 [3] [µM] | IC50 [4] [µM] | IC50 [5] [µM] | IC50 [6] [µM] | IC50 [7] [µM] | IC50 [8] [µM] | pKa [9] | also measured
24 | CC(C)S(=O)(=O)NC1Cc2ccc(-c3cccc(CN4CCCS4(=O)=O)c3)cc2C1 (stereo unspecified) | 0.398 | – | – | – | – | – | – | – | – | fraction unbound at 6 h, 1 ug/ml [10]: 0.033
25 | CC(C)S(=O)(=O)NC1Cc2ccc(-c3cccc(NS(C)(=O)=O)c3)cc2C1 (stereo unspecified) | 0.794 | – | – | – | – | – | – | – | – | fraction unbound at 6 h, 1 ug/ml [10]: 0.041; AUC(0-t) [12]: 1130 ng·h/mL; Kp [11]: 0.1; efflux ratio [25]: 5.8
